# Patent US20220267445A1, “Methods and Compositions for Determining Susceptibility to Treatment with Checkpoint Inhibitors” (Novocure GmbH, priority 2021, published 2022)
# How the values were obtained:
# [1] = test system: U87MG, LN428 and LN827 GBM cells; assay: TTFields-induced cytosolic micronuclei clusters with cGAS and AIM2 recruitment (immunofluorescence, confocal); format: cell-based, human; conditions: ribociclib 4.5 μM
# Description: FIG. 1C, FIG. 1D, FIG. 1E, and FIG. 1F show exemplary confocal images with z stack showing immunofluorescent staining for cGAS, AIM2, and LAMINA/C with DAPI counter-staining in LN428 GBM cells that were pretreated with either the vehicle (FIG. 1C, FIG. 1E) or ribociclib (4.5 μM) (FIG. 1D, FIG. 1F) to induce G1 arrest, then non-treated (FIG. 1C, FIG. 1D) or treated with TTFields for 24 hours (FIG. 1E,
# FIG. 1G provides an exemplary bar graph showing percentages of cells with large cytosolic micronuclei clusters with cGAS and AIM2 recruitment being dependent on TTFields in the 3 indicated GBM cell lines treated as described with respect to FIG. 1C, FIG. 1D, FIG. 1E, and FIG. 1F;
# To address this question, cells were pretreated for 24 hours prior to and during a 24 hour exposure to TTFields with ribociclib, a potent inhibitor of cyclin-dependent kinases 4 and 6, to induce G1 arrest^31 (FIG. 1H).
# Cells grown on cover slips were fixed with 4% paraformaldehyde for 30 min at 4° C., incubated overnight at 4° C. with different combinations of primary antibodies (dilution 1:500) against indicated antigens and then for 2 hours at room temperature with appropriate fluorochrome-conjugated secondary antibodies, (dilution 1:500). Labeled cells were counterstained with DAPI (Thermo Fisher, Cat #D1306) at 1 μgm/ml and images captured and analyzed, using a Zeiss 800 inverted confocal microscope. […]
# LN428 cells = assay: DNA content analysis by propidium iodide (PI) staining; format: cell-based, human; conditions: ribociclib 4.5 μM, 0 and 24 hours
compound,measurement,setting,value
CN(C)C(=O)c1cc2cnc(Nc3ccc(N4CCNCC4)cn3)nc2n1C1CCCC1 [ribociclib],"percentage of cells with cGAS and AIM2-recruited micronuclei clusters after TTFields, G1-arrested cells compared to cycling cells","[1]; 24 hours prior to and during 24 hour TTFields (200 kHz), all 3 lines",consistently decreased
same,"cluster formation, ribociclib treatment alone",[1]; no TTFields,did not increase
same,G1-S arrest,LN428 cells,effective G1-S arrest
